# Laboratory results taken from US20100125059A1, “1-BIARYLAZETIDINONE DERIVATIVE” (Teijin Pharma Limited, priority 2007, published 2010).
# Like-named read-outs stand apart in the source and are kept apart here.
# Legend:
# Caco-2 cells = assay: Cholesterol absorption inhibition assay (in vitro), [14C] cholesterol mixed micelles; type: cell-based; conditions: Homo sapiens, 24 hours, read-out: cholesterol absorption inhibitory activity; for inhibition at 10 µM: concentration of 10 μM; for inhibition at 12.5 µM: concentration of 12.5 μM
# Description: This assay measures cholesterol absorption inhibitory activity by adding mixed micelles containing [^14C] cholesterol to cells and measuring cholesterol taken in the cells as oleic acid cholesteryl ester. The assay is conducted after Caco-2 cells are seeded on multi-well plates and cultured (culture medium: DMEM containing 10% fetal bovine serum, 1% non-essential amino acids, 1% penicillin, and 1% streptomycin) for 2 weeks. To each well, the micelle solution (in an amount required to provide the following final concentrations: 600 μM of sodium oleate, 50 μM of phosphatidyl choline, 5 mM of sodium taurocholate, 2.5 μM of cholesterol, and 2.5 μM of [^14C] cholesterol) and a test compound solution (in an amount required to provide the final concentration of 0.5 to 25 μM) or a solvent as a control are added, and incubation is started at 37° C. 24 hours later, the culture medium is removed, and the lipid component is extracted with hexane/2-propanol (3:2, v/v) and applied onto thin-layer silica gel plates. After drying, each plate is eluted with a mixture of hexane, diethyl ether, and acetic acid in a ratio of 83:16:1. The plates are photoexposed on imaging plates and analyzed using BAS-2500 (FUJIFILM). The amounts of light exposure of the areas corresponding to the cholesteryl ester are calculated. Background is measured using a blank space of the plate. Inhibition rates are calculated using values obtained by subtracting the background values from both values of the control and the test sample, respectively, in accordance with the following equation. A test value is calculated as a percentage (%) with respect to the control.
# In the Equation 1, A is the control group, BG is a background, and B is the test compound.
# The following results were obtained from the measurement by this method on cholesterol absorption inhibitory activity of the compounds of the present invention. The following results were obtained by the evaluation using concentrations of 10 μM and/or 12.5 μM.
# [1] = test system: hamsters fed a high cholesterol diet; assay: Measurement of lipid lowering effect in hamsters fed a high cholesterol diet; type: in vivo, Male Golden Syrian hamsters; conditions: Mesocricetus auratus, po, 168 h, gavage once daily, 7 days
# Description: Male Golden Syrian hamsters are divided into groups each consisting of 6 animals and fed a controlled high cholesterol diet (CE-2 containing 0.5% cholesterol; CLEA Japan, Inc.) for 28 days at most. From the start of feeding of the high cholesterol diet, the test compounds are administered by gavage once daily. For the administration, 0.2 mL of corn oil alone per 100 g (control group) or a solution (or suspension) of the test compound in corn oil at a dose of 0.01 to 10 mg/kg was given. At the same time, a group fed with a normal diet during the same study period is handled as a normal group. 4 hours after the last administration, whole blood is collected from the abdominal aorta under light anesthesia with ether and serum is separated from the blood. Further, livers are harvested, wet liver weights are measured, and part (about 0.5 g) of the harvested livers are extracted and weighed. 2-propanol in an amount 4 times the weight of the extracted livers are added, the resulted mixtures are homogenized, and the centrifuged supernatant are recovered and used as liver-derived samples.
# Serum and liver TC concentrations are determined by an enzyme method using L-type Wako CHO•H (Wako Pure Chemical Industries Ltd.) or Cholestest CHO (Daiichi Pure Chemicals Co., Ltd.). Serum TG concentrations are determined by an enzyme method using L-type Wako TG•H (Wako Pure Chemical Industries Ltd.) or Autosera S TG-N (Daiichi Pure Chemicals Co., Ltd.) and a free glycerine elimination method. LDL-C concentrations are determined by a direct method using L-type Wako LDL-C•M (Wako Pure Chemical Industries Ltd.) or Cholestest LDL (Daiichi Pure Chemicals Co., Ltd.). Human serum was commonly used as a sample for the calibration curve for determinations of serum and liver TC concentrations, serum TG concentration, and serum LDL-C concentration. The effect of the test compound is shown by a suppression rate (%) of an increase in serum TC concentration due to feeding of the high cholesterol diet, a serum TG lowering rate (%), a suppression rate (%) of an increase in serum LDL-C concentration due to feeding of the high cholesterol diet, and a suppression rate (%) of an increase in liver TC concentration due to feeding of the high cholesterol diet calculated in accordance with the following equations.
# In the Equation 2, A is the control group, B is the test compound group, and C is the normal group.
# In the Equation 3, A is the control group, B is the test compound group, and C is the normal group.
# In the Equation 4, A is the control group, B is the test compound group, and C is the normal group.
# In the Equation 5, A is the control group, and B is the test compound group.
# The following results were obtained from the study by this method on the effects of lowering serum TC, LDL-C, and TG, and liver TC in the hamsters fed with a high cholesterol diet which were given the test compounds for 7 days.
# The compounds in which pyridyl of compound of example 51 and 55 was exchanged for phenyl, were used as comparative compound 1 and 2, respectively. In the same method as Example 112, the suppression rate (%) of an increase in serum TC concentration of comparative compound 1 and 2 were calculated.
# [2] = read-out: serum LDL-C lowering effect (suppression rate of an increase in serum LDL-C concentration)
# [3] = read-out: serum TC lowering effect (suppression rate of an increase in serum TC concentration)
# [4] = read-out: serum TG lowering effect (serum TG lowering rate)
smiles,measurement,setting,value
"O=C1[C@H](SC[C@H](O)c2ccc(F)cc2)[C@@H](c2ccc(O)c(Cl)c2)N1c1ccc(-c2cccnc2)cc1 [Example 39, (3R,4R)-3-[(2R)-2-(4-fluorophenyl)-2-hydroxyethylthio]-4-(3-chloro-4-hydroxyphenyl)-1-[4-(pyridin-3-yl)phenyl]azetidin-2-one]",inhibition at 10 µM,Caco-2 cells,≥ 50%
"O=C1[C@H](SC[C@H](O)c2ccc(F)cc2)[C@@H](c2ccc(O)cc2)N1c1ccc(-c2ccncc2)cc1 [Example 11, (3R,4R)-3-[(2R)-2-(4-fluorophenyl)-2-hydroxyethylthio]-4-(4-hydroxyphenyl)-1-[4-(pyridin-4-yl)phenyl]azetidin-2-one]",inhibition at 10 µM,Caco-2 cells,≥ 50%
"O=C1[C@H](SC[C@H](O)c2ccc(F)cc2)[C@@H](c2ccc(O)cc2)N1c1ccc(-c2cccnc2)cc1 [Example 1, (3R,4R)-3-[(2R)-2-(4-fluorophenyl)-2-hydroxyethylthio]-4-(4-hydroxyphenyl)-1[4-(pyridin-3-yl)phenyl]azetidin-2-one]",inhibition at 12.5 µM,Caco-2 cells,≥ 60%
"COc1ccc(CS[C@H]2C(=O)N(c3ccc(-c4cccnc4)cc3)[C@@H]2c2ccc(O)cc2)cc1 [Example 19, (3R,4R)-4-(4-hydroxyphenyl)-3-[(4-methoxyphenyl)methylthio]-1-[4-(pyridin-3-yl)phenyl]azetidin-2-one]",inhibition at 10 µM,Caco-2 cells,≥ 50%
"Cc1cc(N2C(=O)[C@H](SC[C@H](O)c3ccc(F)cc3)[C@H]2c2ccc(O)cc2)ccc1-c1cccnc1 [Example 47, (3R,4R)-3-[(2R)-2-(4-fluorophenyl)-2-hydroxyethylthio]-4-(4-hydroxyphenyl)-1-[3-methyl-4-(pyridin-3-yl)phenyl]azetidin-2-one]",inhibition at 10 µM,Caco-2 cells,≥ 50%
"COc1ncccc1-c1ccc(N2C(=O)[C@H](SC[C@H](O)c3ccc(Cl)cc3)[C@H]2c2ccc(O)cc2)cc1 [Example 57, (3R,4R)-3-[(2R)-2-(4-chlorophenyl)-2-hydroxyethylthio]-4-(4-hydroxyphenyl)-1-[4-(2-methoxypyridin-3-yl)phenyl]azetidin-2-one]",inhibition at 10 µM,Caco-2 cells,≥ 50%
same,inhibition at 12.5 µM,Caco-2 cells,≥ 60%
"O=C1[C@H](SC[C@H](O)c2ccc(F)cc2)[C@@H](c2ccc(O)cc2)N1c1ccc(-c2cccnc2)c(F)c1 [Example 36, (3R,4R)-3-[(2R)-2-(4-fluorophenyl)-2-hydroxyethylthio]-1-[3-fluoro-4-(pyridin-3-yl)phenyl]-4-(4-hydroxyphenyl)azetidin-2-one]",inhibition at 10 µM,Caco-2 cells,≥ 50%
"O=C1[C@H](SC[C@H](O)c2ccc3c(c2)OCCO3)[C@@H](c2ccc(O)cc2)N1c1ccc(-c2cccnc2)cc1 [Example 29, (3R,4R)-3-[(2R)-2-(2H,3H-benzo[3,4-e]1,4-dioxin-6-yl)-2-hydroxyethylthio]-4-(4-hydroxyphenyl)-1-[4-(pyridin-3-yl)phenyl]azetidin-2-one]",inhibition at 10 µM,Caco-2 cells,≥ 50%
"O=C1[C@H](SC[C@H](O)c2ccc(C(F)(F)F)cc2)[C@@H](c2ccc(O)cc2)N1c1ccc(-c2cccnc2)cc1 [Example 43, (3R,4R)-3-{(2R)-2-hydroxy-2-[4-(trifluoromethyl)phenyl]ethylthio}-4-(4-hydroxyphenyl)-1-[4-(pyridin-3-yl)phenyl]azetidin-2-one]",inhibition at 10 µM,Caco-2 cells,≥ 50%
"Cc1ncccc1-c1ccc(N2C(=O)[C@H](SC[C@H](O)c3ccc(F)cc3)[C@H]2c2ccc(O)cc2)cc1 [Example 54, (3R,4R)-3-[(2R)-2-(4-fluorophenyl)-2-hydroxyethylthio]-4-(4-hydroxyphenyl)-1-[4-(2-methylpyridin-3-yl)phenyl]azetidin-2-one]",inhibition at 10 µM,Caco-2 cells,≥ 50%
"O=C1[C@H](SC[C@H](O)c2ccc3c(c2)OCO3)[C@@H](c2ccc(O)cc2)N1c1ccc(-c2cccnc2)cc1 [Example 33, (3R,4R)-3-[(2R)-2-(2H-benzo[3,4-d]1,3-dioxolen-5-yl)-2-hydroxyethylthio]-4-(4-hydroxyphenyl)-1-[4-(pyridin-3-yl)phenyl]azetidin-2-one]",inhibition in vivo at 0.1 mg/kg,[1]; [2],≥ 50%
same,inhibition in vivo at 0.1 mg/kg,[1]; [3],≥ 50%
"N#Cc1cncc(-c2ccc(N3C(=O)[C@H](SC[C@H](O)c4ccc(F)cc4)[C@H]3c3ccc(O)cc3O)cc2)c1 [Example 63, 5-(4-{(3R,4R)-3-[(2R)-2-(4-fluorophenyl)-2-hydroxyethylthio]-4-(2,4-dihydroxyphenyl)-2-oxoazetidinyl}phenyl)pyridine-3-carbonitrile]",inhibition in vivo at 0.01 mg/kg,[1]; read-out: liver TC lowering effect (suppression rate of an increase in liver TC concentration),≥ 30%
same,inhibition in vivo at 0.01 mg/kg,[1]; [2],≥ 30%
same,inhibition in vivo at 0.01 mg/kg,[1]; [3],≥ 30%
same,inhibition in vivo at 0.1 mg/kg,[1]; [2],≥ 50%
same,inhibition in vivo at 0.1 mg/kg,[1]; [3],≥ 50%
"O=C1[C@H](SC[C@H](O)c2ccc(F)cc2)[C@@H](c2ccc(O)cc2O)N1c1ccc(-c2cncc(Cl)c2)cc1 [Example 92, (3R,4R)-3-[(2R)-2-(4-fluorophenyl)-2-hydroxyethylthio]-4-(2,4-dihydroxyphenyl)-1-[4-(5-chloropyridin-3-yl)phenyl]azetidin-2-one]",inhibition in vivo at 0.01 mg/kg,[1]; [2],≥ 30%
same,inhibition in vivo at 0.01 mg/kg,[1]; [3],≥ 30%
same,inhibition in vivo at 0.1 mg/kg,[1]; [4],≥ 20%
"O=C(CS[C@H]1C(=O)N(c2ccc(-c3cccnc3)cc2)[C@@H]1c1ccc(O)cc1)c1ccc(F)cc1 [Example 27, (3R,4R)-3-[2-(4-fluorophenyl)-2-oxoethylthio]-4-(4-hydroxyphenyl)-1-[4-(pyridin-3-yl)phenyl]azetidin-2-one]",inhibition in vivo at 0.1 mg/kg,[1]; [2],≥ 50%
same,inhibition in vivo at 0.1 mg/kg,[1]; [3],≥ 50%
"COc1cc(Cl)ccc1[C@@H](O)CS[C@H]1C(=O)N(c2ccc(-c3cccnc3)cc2)[C@@H]1c1ccc(O)cc1 [Example 101, (3R,4R)-3-[(2R)-2-(4-chloro-2-methoxyphenyl)-2-hydroxyethylthio]-4-(4-hydroxyphenyl)-1-[4-(pyridin-3-yl)phenyl]azetidin-2-one]",inhibition in vivo at 0.1 mg/kg,[1]; [2],≥ 50%
same,inhibition in vivo at 0.1 mg/kg,[1]; [3],≥ 50%
"O=C1[C@H](SC[C@H](O)c2ccc(F)cc2)[C@@H](c2ccc(O)cc2)N1c1ccc(-c2ccc(C(F)(F)F)cn2)cc1 [Example 3, (3R,4R)-3-[(2R)-2-(4-fluorophenyl)-2-hydroxyethylthio]-4-(4-hydroxyphenyl)-1-[4-(5-trifluoromethylpyridin-2-yl)phenyl]azetidin-2-one]",inhibition in vivo at 0.1 mg/kg,[1]; [4],≥ 20%
